# From publication PMC10938454, “Preparation, Characterization, Antioxidant Activities, and Determination of Anti-Alzheimer Effects of PLGA-Based DDSs Containing Ferulic Acid” (ACS Omega, 2024)
# Legend:
# [1] = target: T1, BuChE (butyrylcholinesterase) (Equus caballus, UniProt P81908); experiment: Ellman assay, […] nm, microplate; assay type: biochemical; conditions: read-out: IC50 (μg.mL^-1) (converted)
# T1 construct: gene BCHE; native enzyme isolated from horse serum
# [2] = target: T2, AChE (acetylcholinesterase) (Electrophorus electricus, UniProt O42275); experiment: Ellman assay, […] nm, microplate; assay type: biochemical; conditions: read-out: IC50 (μg.mL^-1) (converted)
# T2 construct: native enzyme isolated from electric eel, type VI-S (printed 'type VIS')
# T2 sequence (O42275 24-633): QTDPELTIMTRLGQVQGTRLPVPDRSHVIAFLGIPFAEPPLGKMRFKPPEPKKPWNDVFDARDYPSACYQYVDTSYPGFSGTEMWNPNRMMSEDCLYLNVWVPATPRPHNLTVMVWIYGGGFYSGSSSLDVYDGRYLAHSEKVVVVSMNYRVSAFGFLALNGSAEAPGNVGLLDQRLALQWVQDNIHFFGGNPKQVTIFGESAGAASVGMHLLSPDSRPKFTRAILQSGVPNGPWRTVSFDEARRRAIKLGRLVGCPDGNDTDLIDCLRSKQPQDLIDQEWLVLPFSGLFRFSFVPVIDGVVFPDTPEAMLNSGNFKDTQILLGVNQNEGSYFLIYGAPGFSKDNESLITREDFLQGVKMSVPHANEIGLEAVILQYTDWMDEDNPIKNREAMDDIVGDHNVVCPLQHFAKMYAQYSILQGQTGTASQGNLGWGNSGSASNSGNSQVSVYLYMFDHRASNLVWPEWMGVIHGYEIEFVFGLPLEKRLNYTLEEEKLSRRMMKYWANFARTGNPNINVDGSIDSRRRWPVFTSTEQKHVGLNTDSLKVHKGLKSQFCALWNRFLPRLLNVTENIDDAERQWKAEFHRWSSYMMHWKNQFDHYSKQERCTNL
# T1 sequence (P81908 whole entry): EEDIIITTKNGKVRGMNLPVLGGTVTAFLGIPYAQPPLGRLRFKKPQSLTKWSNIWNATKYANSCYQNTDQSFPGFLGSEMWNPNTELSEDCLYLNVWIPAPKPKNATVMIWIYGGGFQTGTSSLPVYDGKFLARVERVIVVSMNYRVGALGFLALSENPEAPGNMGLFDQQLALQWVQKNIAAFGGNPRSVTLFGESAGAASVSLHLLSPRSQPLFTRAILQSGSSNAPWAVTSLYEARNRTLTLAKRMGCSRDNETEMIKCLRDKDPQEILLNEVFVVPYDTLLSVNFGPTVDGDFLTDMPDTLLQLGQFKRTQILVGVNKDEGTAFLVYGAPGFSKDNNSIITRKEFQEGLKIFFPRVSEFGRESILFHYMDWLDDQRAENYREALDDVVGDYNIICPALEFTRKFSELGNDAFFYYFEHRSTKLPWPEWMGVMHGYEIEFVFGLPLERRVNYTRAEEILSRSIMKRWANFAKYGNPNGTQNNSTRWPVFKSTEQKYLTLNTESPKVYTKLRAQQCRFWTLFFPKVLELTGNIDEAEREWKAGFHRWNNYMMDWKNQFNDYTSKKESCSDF
smiles,measurement,setting,value
COc1cc(/C=C/C(=O)O)ccc1O [ferulic acid],IC50,[1],2.68 mM
same,IC50,[2],2.1 mM
